Data published in patent US9110051B2, “Pharmacologic method of lowering cholesterol production” (The University of Chicago, priority 2004, dated 2015).

What was measured:
Format in all cases: cell-based
red cell membranes = experiment: Oxidation of red cell membrane cholesterol by cholesterol oxidase; settings: 0-12 μmolar analog pretreatment; cholesterol oxidase 1 h, FIG. 5
Description: The red cell membranes were pretreated with ceramide or diglycerides and then treated with cholesterol oxidase for a hour. An increase in oxidation following cholesterol oxidase treatment signifies an increase in active cellular cholesterol.
Red cell membrane lysis is measured using cholesterol oxidase as set forth in the examples above. Prior to lysis, red cell membranes are treated with either differing amounts of a ceramide analog (0-12 μmolar) or differing amounts of a diglyceride analog (0-12 μmolar). The increased level of plasma membrane cholesterol activity is detected by susceptibility to cholesterol oxidase and measured as a % of oxidation.

red blood cells = experiment: Lysis of red blood cells by saponin; settings: saponin 0-8 μg/well, 30 minutes, compared to solvent control, FIG. 6
Description: Red blood cells were pre-treated with either octanol, diglyceride, ceramide, or solvent before incubation with varying concentrations of saponin. The decrease in optical absorbance at 500 nm indicates increasing lysis.
Red cell membranes are treated with octanol, diglyceride, ceramide, or solvent before incubation with different concentrations of saponin (0-8 μg/well) for 30 minutes. Optical absorbance at OD500 is measured. Decreased optical absorbance indicates increasing lysis by saponin.

human fibroblasts = experiment: Effect of octanol on fibroblast cholesterol; settings: 24 h in growth medium with octanol, FIG. 4
Description: FIG. 4 depicts the effect of octanol on fibroblast cholesterol. Replicate flasks of fibroblasts were incubated for 24 h in growth medium with octanol. The cells were then assayed for cholesterol and protein.
The cultured cells described in Example 3 will be plated in microtiter wells and incubated with test compounds at 37° C. for two days to allow a full metabolic response. The drug will then be washed away, amphotericin B added to the wells and cell lysis followed from the leakage of potassium ions or another indicator, as above. Resistance to amphotericin B lysis will indicate that the objective has been achieved: the reduction of plasma membrane cholesterol in response to the test compound. Other polyene antibiotics (e.g., nystatin and filipin) will be tested in place of amphotericin B in order to discern their effects. In contrast to the screens described in the previous examples, which are used to identify compounds that raise the activity of membrane cholesterol, the present assay will measure the long-term effect of modulating cholesterol levels. Agents that increase plasma membrane cholesterol activity, when used as drugs, will signal cells to reduce their cholesterol accretion homeostatically. […] This can be detected by their increased resistance to amphotericin B, which normally lyses these cells.

[1] = test system: human fibroblast cell line; experiment: Fibroblast plasma membrane cholesterol susceptibility to cholesterol oxidase; settings: adding 0.1-1.0 mM octanol
Description: A human fibroblast cell line is grown in bulk culture and seeded into microtiter wells the day before experimentation. The fibroblast cells from the fibroblast cell line are rinsed and treated with octanol plus cholesterol oxidase as in Example 2. The increased level of plasma membrane cholesterol activity is detected in two ways. First, plasma membrane cholesterol activity is detected by susceptibility to cholesterol oxidase. […] Cell lysis caused by cholesterol oxidation can also be determined by measuring increased cell permeability using a plate fluorescence reader and the impermeable indicator of potassium ions, PBFI, or another indicator system.

human red blood cells = experiment: Screen using red blood cell lysis by amphotericin B; settings: for effect on amphotericin B lysis of red cells (activity of membrane cholesterol): cholesterol lowered with cyclodextrin, turbidity or by eye, FIGS. 1 and 2; for red blood cell lysis caused by amphotericin B (visual screen): cholesterol-modified cells, octanol 0.2 μmol/well or lysophosphatidylcholine 1 μg/well, amphotericin B 20 μg/well, 1 h, room temperature
Description: Human red blood cells were either freshly drawn or taken from an outdated blood bank source and then washed and suspended in physiological buffer. The cholesterol content of washed human red blood cells was varied with methyl-β-cyclodextrin/methyl-β-cyclodextrin-cholesterol complexes. The cells were distributed into a 96-well plate and incubated for a few minutes with saline (O), 0.2 μmol/well octanol (V) or 1 μg/well lysophosphatidylcholine (□). Amphotericin B (20 μg/well) was added and the plate incubated for 1 hour at room temperature. […] In FIG. 1, turbidity (signifying intact cells) was determined in a plate-reading photometer as optical density (OD) at 500 nm; loss of OD signifies lysis. In FIG. 1, results are plotted versus total human red blood cell cholesterol, assessed with Amplex™ Red, Molecular Probes, Eugene, Oreg. The cholesterol content of unmodified red blood cells was 0.55 μg/μl cells, close to the threshold of the control curve.
Cells with modified cholesterol were placed in the conical wells of a 96-well plate, briefly pre-incubated with the two test compounds, and then treated with amphotericin B (20 μg/well) for one hour at room temperature. The plate was photographed after the cells settled. Row A: saline control. Cells depleted of cholesterol (wells 1-6) resisted lysis (seen as a loss of the central button). Row B: n-octanol (0.2 μmol/well). […] Row C: Lysophosphatidylcholine (1 μg/well).
Human red cells (freshly drawn or from an outdated blood bank source) were washed and suspended in physiological buffer. […] The cholesterol modified cells were placed in the wells of a microtiter plate and incubated for a few minutes at room temperature with octanol and lysophosphatidylcholine, which can be replaced with a battery of drugs (individually or in mixtures). Amphotericin B was then added and the plate incubated at room temperature for an hour. Cell lysis was scored by reading light scattering in a plate-reading photometer (FIG. 1) or, more simply, by letting the unlysed cells settle for an hour in conical wells and then assessing hemolysis by eye (FIG. 2).
Polyene antibiotics such as amphotericin B are known to promote the disruption of cholesterol containing membranes. However, this action depends critically on the cholesterol level in the membrane (see the control curves, O - - - O, in FIGS. 1 and 2). The critical cholesterol content for lysis is close to the physiological level in human fibroblast plasma membranes, for the same reason that ER cholesterol responds dramatically near the physiological content of the plasma membrane. […]

With ceramide the “susceptibility of red cell cholesterol to oxidation by cholesterol oxidase (% of oxidation)” value (red cell membranes) was “increase the susceptibility of red cell cholesterol to oxidation” and the “lysis of red blood cells by saponin (OD500)” value (red blood cells) was “increase lysis of red blood cells at lower concentrations of saponin”.

For `CCCCCCCCO` [octanol, n-octanol], the “fibroblast cell cholesterol after prolonged culture” value (human fibroblasts) was “resulted in cholesterol reduction”, the “oxidation of fibroblast cholesterol by cholesterol oxidase” value [1] was “readily oxidized” and the “effect on amphotericin B lysis of red cells (activity of membrane cholesterol)” value (human red blood cells) was “favors amphotericin B lysis”. The “red blood cell lysis caused by amphotericin B (visual screen)” value (human red blood cells) was “Even cholesterol depleted cells were lysed by amphotericin B” and the “lysis of red blood cells by saponin (OD500)” value (red blood cells) was “increase lysis of red blood cells at lower concentrations of saponin”.

lysophosphatidylcholine was tested, and the “effect on amphotericin B lysis of red cells (activity of membrane cholesterol)” value (human red blood cells) was “has the opposite effect” and the “red blood cell lysis caused by amphotericin B (visual screen)” value (human red blood cells) was “Even enriched cells resisted amphotericin B lysis”.
